Laboratory results reported in patent publication US20070155755A1, “N-arylshydroxyalkylidene-carboxamide compositions and methods” (priority 2004, published 2007).
Blank lines part the entries; values can stand above or below the compound they belong to.

Key:
skin of the upper lip = test: Cooling sensation bioassay, ointment applied to skin above the upper lip (philtrum); assay type: in vivo, human; details: for duration of action (in words): application to the skin of test subjects; for duration of action, cooling on the skin of the upper lip (FIG. 1 legend): in Aquaphor ointment, concentration not given; for quality of sensation and duration (coolness not cold, duration at least three hours): philtrum method of testing; for duration of action, cooling on the skin of the upper lip: 0.5% wt/vol in Aquaphor ointment
From the text: A reliable place for topical application is on the upper lip, above the vermillion border of the lips, on the philtrum, lateral to the philtrum until the nasolabial folds, and on the lower nostrils. This part of the face is known to be densely innervated with cold receptors, second only to the surface of eyeball. Tingling, cool and cold sensations may be experienced and rated for intensity. This test is quite accurate for predicting the cooling activity of candidate N-arylshydroxyalkylidene-cCarboxamide drugs, but most importantly, it also measures the duration of drug action on the sensory receptors. The duration of action is not measured in a receptor assay and is difficult to quantify on the tongue because of the dynamic fluid conditions in the oral cavity and the presence of taste factors that affect thermosensation.
Bioassay Procedures For bioassay of CPS-195 on the skin, CPS-195 was stirred and dissolved in warm liquid Aquaphor® ointment to yield ointment concentrations of 0.25, 0.5, 1 and 2% wt/vol. After cooling, 50 to 80 mg of the solid ointment was placed on the tip of a plastic stick and applied to the skin above the upper lip, on the philtrum, and lateral to the philtrum up to the nasolabial folds, of test subjects and the onset and duration of cooling sensations recorded.
The intensity of the subjective skin sensation is rated as 0, 1, 2 or 3 with: 0 as no change, 1 as slight coolness, cold, or tingling, 2 as clear cut signal of coolness, cold, or tingling, and 3 as robust cooling or cold. The interval for recording sensations is at 5 min intervals, until two successive zeroes are obtained. The results are averaged values of 4 to 6 separate trials in the same individual. The data are plotted using SigmaPlot (Systat Software, Point Richmond Calif.) and a smoothing function with a negative exponential was used for analysis and statistical fit of the results.
The onset of drug action is taken as the time to reach 2 units of coolness intensity, and offset of drug action is the time when coolness intensity drops below 1.5, after previously surpassing 2 units. The duration of cooling action is defined as the offset time minus the onset time, which in this case averaged […]. The quality of the sensation is also noted, such as refreshing coolness, cold, or if the sensation is accompanied by irritation (stinging or burning). The quality of the sensation is not rated for intensity.

[1] = tested on: dorsal surface of the tongue; test: Cooling sensation after placement on the dorsal surface of the tongue; assay type: in vivo, human; details: 2 mg on dorsal surface of the tongue
Method: The onset of cooling was 3 to 5 min, but once the effect was established, the entire oral cavity and pharyngeal surfaces (oro-, laryngo- and naso-pharynx) felt cool.

[2] = tested on: throat irritation and cough; test: Ludipress tablet on the tongue in an individual with throat irritation and cough; assay type: in vivo, human; details: 3% wt/wt tablet in Ludipress, 60 mg (1.8 mg CPS-195)
Method: CPS-195 was formulated as a 3% wt/wt tablet in Ludipress®, a rapidly disintegrating direct compression excipient made by BASF Corp. The tablet size was 60 mg so each unit contained 1.8 mg of CPS-195. […] For example, applied onto the mucous membranes of the oral cavity it can soothe the discomforts of pharyngitis/laryngitis, oral mucositis, oral ulcers, and idiopathic facial pain. In the pharynx and upper airways, CPS-195 may be used to reduce or to treat cough, asthma, and chronic obstructive pulmonary disease. On the skin, CPS-195 can be used to treat the discomfort of severe acne, eczema, diabetic ulcers, and the like.

TRP-M8 receptor = target: T1, TRP-M8 receptor (Homo sapiens, UniProt Q7Z2W7); test: TRP-M8 receptor assay; assay type: cell-based
T1 construct: expressed in transfected cells
T1 sequence (Q7Z2W7 whole entry): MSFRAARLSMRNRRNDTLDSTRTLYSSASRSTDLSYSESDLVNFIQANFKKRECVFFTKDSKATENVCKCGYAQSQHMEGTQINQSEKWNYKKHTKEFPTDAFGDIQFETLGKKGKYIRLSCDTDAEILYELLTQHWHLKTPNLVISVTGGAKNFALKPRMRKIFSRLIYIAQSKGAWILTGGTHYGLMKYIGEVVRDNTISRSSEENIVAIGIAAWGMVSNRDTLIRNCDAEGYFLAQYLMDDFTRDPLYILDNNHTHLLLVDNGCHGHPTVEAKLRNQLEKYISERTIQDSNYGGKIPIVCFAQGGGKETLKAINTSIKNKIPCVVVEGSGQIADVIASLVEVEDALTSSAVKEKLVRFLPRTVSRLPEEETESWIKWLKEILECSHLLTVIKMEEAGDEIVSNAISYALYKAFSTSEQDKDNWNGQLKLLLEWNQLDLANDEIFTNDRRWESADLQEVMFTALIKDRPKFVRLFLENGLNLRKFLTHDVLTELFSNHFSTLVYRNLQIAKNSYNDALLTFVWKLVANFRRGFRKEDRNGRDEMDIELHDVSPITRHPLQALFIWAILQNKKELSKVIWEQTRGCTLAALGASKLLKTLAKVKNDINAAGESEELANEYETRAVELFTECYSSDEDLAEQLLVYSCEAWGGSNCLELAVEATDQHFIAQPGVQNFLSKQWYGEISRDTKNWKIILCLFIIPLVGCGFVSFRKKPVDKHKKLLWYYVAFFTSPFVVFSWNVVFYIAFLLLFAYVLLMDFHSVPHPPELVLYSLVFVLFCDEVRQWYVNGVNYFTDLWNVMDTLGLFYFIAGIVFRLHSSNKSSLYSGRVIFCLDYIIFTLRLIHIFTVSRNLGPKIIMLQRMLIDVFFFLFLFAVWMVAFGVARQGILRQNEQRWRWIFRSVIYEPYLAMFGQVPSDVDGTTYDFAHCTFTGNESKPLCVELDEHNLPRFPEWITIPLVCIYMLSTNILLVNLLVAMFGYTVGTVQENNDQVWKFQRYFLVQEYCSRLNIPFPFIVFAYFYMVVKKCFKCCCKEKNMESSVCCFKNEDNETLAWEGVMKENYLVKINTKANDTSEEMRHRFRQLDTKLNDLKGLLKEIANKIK
From the text: Tests for Activities of New Compounds. Pain was defined by Sir Charles Sherrington as “the psychic adjunct of an imperative protective reflex”. Psychic events such as cooling, irritation, itch, and pain cannot be expressed by animals (animals cannot say “ouch” or that “it itches”) so the sensory effects of chemicals must be indirectly inferred. Receptor assays, based on cells transfected with the gene for TRP-M8 or TRP-A1, may be used as a model of sensory processes. […] The best information on the pharmacological properties of these chemicals must therefore be derived from human experiment.

SMILES: CC1CCC(C(C)C)C(O)C1 (single isomer, unassigned; (-)) [(−)-menthol, reference compound]
duration of action (in words) (skin of the upper lip): active for less than one hour

SMILES: CC(C)[C@@H]1CC[C@@H](C)C[C@H]1C(=O)N(C)CC(O)c1cccc(O)c1 (stereo in doubt) [CPS-195, 2-Isopropyl-5-methyl-cyclohexanecarboxylic acid [2′-hydroxy-2′-(3″-hydroxy-phenyl)-ethyl]-N-methyl-amide]
duration of action, coolness and cold on the skin of the upper lip (skin of the upper lip; 0.25% wt/vol in Aquaphor ointment): 1.2 h
duration of action, coolness and cold on the skin of the upper lip (skin of the upper lip; 1% wt/vol in Aquaphor ointment): 2.4 h
duration of action, coolness and cold on the skin of the upper lip (skin of the upper lip; 2% wt/vol in Aquaphor ointment): 5.2 h
duration of action, cooling on the skin of the upper lip (FIG. 1 legend) (skin of the upper lip): more than 1 hr
potency compared to CPS-179, CPS-190 and CPS-192 (skin of the upper lip; upper lip ointment test): most potent
onset of cooling [1]: 3 to 5 min
duration of antitussive effect [2]: 24 h
effect on throat irritation [2]: reduced throat irritation

SMILES: CC(C)[C@@H]1CC[C@@H](C)C[C@H]1C(=O)Nc1ccc(S(=O)(=O)Nc2ncccn2)cc1 [CPS-125]
quality of sensation and duration (coolness not cold, duration at least three hours) (skin of the upper lip): qualitative aspects of sensation are met

SMILES: CC(=O)c1ccc(C(CO)CNC(=O)[C@@H]2C[C@H](C)CC[C@H]2C(C)C)cc1 (stereo partly shown) [CPS-179, 2-Isopropyl-5-methyl-cyclohexanecarboxylic acid [2′-(4″-acetyl-phenyl)-3′-hydroxy-propyl]-amide]
duration of action, cooling on the skin of the upper lip (skin of the upper lip): more than 1 hr
duration of action, cooling on the skin of the upper lip (FIG. 1 legend) (skin of the upper lip): more than 1 hr

SMILES: CC1CCC(C(C)C)C(C(=O)N(C)CC(O)c2ccc(O)c(O)c2)C1 (stereo not shown) [CPS-190]
duration of action, cooling on the skin of the upper lip (skin of the upper lip): more than 1 hr
duration of action, cooling on the skin of the upper lip (FIG. 1 legend) (skin of the upper lip): more than 1 hr

SMILES: CC1CCC(C(C)C)C(C(=O)NCC(O)c2cccc(O)c2)C1 (stereo not shown) [CPS-192]
duration of action, cooling on the skin of the upper lip (skin of the upper lip): more than 1 hr
duration of action, cooling on the skin of the upper lip (FIG. 1 legend) (skin of the upper lip): more than 1 hr

SMILES: CCOC(=O)CNC(=O)[C@@H]1C[C@H](C)CC[C@H]1C(C)C [WS-5, reference compound]
duration of action (in words) (skin of the upper lip): active for less than one hour

activity on the TRP-M8 receptor assay (TRP-M8 receptor): active at sub-micromolar concentrations
SMILES: COc1ccc(NC(=O)[C@@H]2C[C@H](C)CC[C@H]2C(C)C)cc1 [WS-12, reference compound]
end of action (skin of the upper lip; 2% preparation): dissipated at the end of one hour
time at which duration of action peaks (skin of the upper lip; 2% preparation): 30 min
sensation elicited (skin of the upper lip; applied at 1 to 2% to the philtrum and its environs): strong cold sensations
quality of sensation and duration (coolness not cold, duration at least three hours) (skin of the upper lip): sensations of cold, but of brief duration
